Test [1] concerns M2R. The following applies: 1 mM ligand, buffer exchange without ligand; cited from earlier work.
The target in test [2] is T1, M2R (Homo sapiens, UniProt P08172).
T1 construct: expressed in transfected cells; host or cells: HEK293A
T1 sequence (P08172 1-466): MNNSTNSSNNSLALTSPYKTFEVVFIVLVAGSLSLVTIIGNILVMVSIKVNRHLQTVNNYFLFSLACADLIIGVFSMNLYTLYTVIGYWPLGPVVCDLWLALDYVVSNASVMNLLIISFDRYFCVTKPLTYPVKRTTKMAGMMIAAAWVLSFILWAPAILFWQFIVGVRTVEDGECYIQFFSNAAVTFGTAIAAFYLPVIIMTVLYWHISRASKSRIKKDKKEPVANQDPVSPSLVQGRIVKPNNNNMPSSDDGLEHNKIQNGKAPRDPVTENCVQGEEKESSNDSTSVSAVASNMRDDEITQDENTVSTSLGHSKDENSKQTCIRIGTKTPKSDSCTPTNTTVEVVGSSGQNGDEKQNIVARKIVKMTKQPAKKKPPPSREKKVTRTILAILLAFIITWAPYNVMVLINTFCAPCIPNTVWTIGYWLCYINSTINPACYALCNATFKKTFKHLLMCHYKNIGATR
Description: NanoBiT G-protein dissociation assay (Gi activation). It counts as cell-based. The following applies: HEK293A cells expressing M2R and NanoBiT-Gi1; for Gi-protein activity relative to ACh (in words): Fig. 3a. As to the method: M2R-induced G-protein dissociation was measured by a NanoBiT-G-protein dissociation assay, in which the interaction between a Gα subunit and a Gβγ subunit was monitored by the NanoBiT system (Promega). Specifically, a NanoBiT-Gi1 protein consisting of Gαi1 subunit fused with a large fragment (LgBiT) at the α-helical domain and an N-terminally small fragment (SmBiT)-fused Gγ2 subunit with a C68S mutation was expressed along with untagged Gβ1 subunit and M2R. HEK293A cells were seeded in a 10-cm culture dish at a concentration of 2 × 10^5 cells mL^−1 (10 mL per well in DMEM (Nissui) supplemented with 10% fetal bovine serum (Gibco), glutamine, penicillin, and streptomycin), 1 day before transfection. Transfection solution was prepared by combining 25 µL (per dish hereafter) of polyethylenimine (PEI) Max solution (1 mg mL^−1; Polysciences), 1 mL of Opti-MEM (Thermo Fisher Scientific), and a plasmid mixture consisting of 1 µg M2R (or an empty plasmid for mock transfection), 500 ng LgBiT-containing Gαi1 subunit, 2.5 µg Gβ1 subunit, and 2.5 µg SmBiT-fused Gγ2 subunit (C68S). After an incubation for 1 day, the transfected cells were harvested with 0.5 mM EDTA-containing Dulbecco’s PBS, centrifuged and suspended in 10 mL of HBSS containing 0.01% bovine serum albumin (BSA; fatty acid–free grade; SERVA) and 5 mM HEPES (pH 7.4) (assay buffer). The cell suspension was dispensed in a white 96-well plate at a volume of 80 µL per well and loaded with 20 µL of 50 µM coelenterazine (Carbosynth) diluted in the assay buffer. After a 2 h incubation at room temperature, the plate was measured for baseline luminescence (Spectramax L, Molecular Devices) and a titrated test ligand (20 µL; […] of final concentrations) was manually added. The plate was immediately read at room temperature for the following 5 min as a kinetics mode, at measurement intervals of 20 s. The luminescence counts over 3–5 min after ligand addition were averaged and normalized to the initial count. The fold-change values were further normalized to that of vehicle-treated samples and used to plot the G-protein dissociation response. Using the Prism 8 software (GraphPad Prism), the G-protein dissociation signals were fitted to a four-parameter sigmoidal concentration-response curve.

For test [3], the system named is M2R. Put plainly: Ligand binding-induced difference ATR-FTIR spectroscopy, amide-I band. Further details: species or system human. The note with it: lipid-reconstituted M2R-BRIL, 293 K; for population of active-like M2R conformation from amide-I band ratio (in words): 1 mM ligand; for ligand efficacy class suggested by amide-I spectral features: H2O, compared with Scop- and NMS-bound spectra. As to the method: Red and purple lines correspond to ACh- and Atro-bound spectra, respectively. To quantitatively examine the change in the amide-I band specific to ligand efficacy, the ratio between the band strength of (2)1656 (+)/(1)1666 (−) cm^−1 of ACh-bound spectra at high frequency and (2)1656 (+)/(3)1640 (−) cm^−1 of ACh-bound spectra at low frequency is calculated and reported as efficacy rate. b Ligand-dependent spectral changes of amide-I band originating from C=O stretch of α-helix in 1700–1620 cm^−1 region. Red, orange, and purple lines correspond to agonist-, partial agonist-, and antagonist-bound spectra, respectively. […] The error values were calculated from three replicate experiments. Cyan dotted line indicates the value = 1.
The ratio of the amide-I band was assumed to be the ligand efficacy (Fig. 2b, c). Strikingly, all agonists have an amide-I band ratio >1. The amide-I band ratio for both the partial agonists and the antagonists were <1, with the exception of Xano.
A 2 μL aliquot of the lipid-reconstituted M2R suspensions was placed on the surface of a silicon ATR crystal (three internal total reflection, Smith Detection, UK. After it was dried in a gently natural drying, the sample was rehydrated with a solvent containing 200 mM phosphate (pH 7.5) buffer with 140 mM NaCl, 3 mM MgCl2 at a flow rate of 0.6 mL min^−1 through a flow cell, of which the temperature was maintained at 20 °C by circulating water. ATR-FTIR spectra were first recorded at 2 cm^−1 resolution, using an FTIR spectrometer (Bio-rad FTS7000, Agilent, CA, USA) equipped with a liquid nitrogen-cooled MCT detector (an average of 768 interferograms). After the FTIR spectrum had been recorded in the second buffer with 1 mM ligand, the difference FTIR spectrum was calculated by subtracting the data obtained for the first and second buffer. The cycling procedure was repeated two to seven times, and the difference spectra were calculated as the average of the presence minus absence spectra of ligand. The spectral contributions of the unbound ligand, the protein/lipid shrinkage, and water/buffer components were corrected (Supplementary Figure 2–5).

For test [4], the system named is M2R. Further details: method as in PMID 23441648. The note with it: super agonist of M2R; cited from earlier work.
The subject of test [5] is M2R. Put plainly: Ligand dissociation kinetics from time-course ATR-FTIR (amide-I band). It counts as binding, human. The following applies: 1 mM ligand washed out by buffer exchange, 0.6 mL min-1, 20 °C; single exponential fit. On the procedure: Each ligand (1 mM concentration) is added at 30 min time point and is washed out at 90 min time point by exchanging to the buffer without ligand at a flow rate of 0.6 mL min^−1 through a flow cell, of which the temperature is maintained at 20 °C by circulating water. […] Ligand dissociation phase is highlighted by light blue. b Time trace of the integrated absorbance signal at dissociation phase in the amide-I band for each ligand. […] Dotted lines represent the fitting curve obtained by single exponential function.
After the FTIR spectrum had been recorded in the second buffer with 1 mM ligand, the difference FTIR spectrum was calculated by subtracting the data obtained for the first and second buffer. The cycling procedure was repeated two to seven times, and the difference spectra were calculated as the average of the presence minus absence spectra of ligand. The spectral contributions of the unbound ligand, the protein/lipid shrinkage, and water/buffer components were corrected (Supplementary Figure 2–5).
All functional and statistical data were analyzed using GraphPad Prism v.9.0 (Graphpad Software) and shown as mean ± s.e.m. from at least three independent experiments. Dissociation kinetics curves were evaluated with a single exponential function.

On to `CC(=O)OCC[N+](C)(C)C` [ACh, acetylcholine], for which the “amide-I band intensity during dissociation phase after buffer exchange” value in test [1] is “decreased gradually”.
For the compound `CN1[C@@H]2CC[C@H]1C[C@@H](OC(=O)C(CO)c1ccccc1)C2` (some centres unmarked) [Atro, atropine], the “amide-I band intensity during dissociation phase after buffer exchange” value in test [1] is on record as “did not decrease”.
Turning to `C[N+](C)(C)CCOC(N)=O` [Carb, Carbamylcholine], the “Gi-protein activity relative to ACh (in words)” value in test [2] was “almost identical Gi-protein activity as ACh”.
Regarding `CC(C)[N+]1(C)[C@@H]2CC[C@H]1C[C@@H](OC(=O)C(CO)c1ccccc1)C2` (some centres unmarked) [Ipra, Ipratropium], the “population of active-like M2R conformation from amide-I band ratio (in words)” value in test [3] was “higher ratio of active conformation than Atro and Scop”. Besides, the “Gi-dissociation activity (Emax normalized to ACh)” value in test [2] (Span normalized to ACh) was 6.3 % of ACh.
With `C[N+](C)(C)CC#CCOC1=NOCC1` [Ixo, Iperoxo], the “Gi-protein activity relative to ACh (in words)” value in test [2] is “higher G-protein activation than ACh”. In addition, the “potency relative to ACh” value in test [4] is recorded as 100 fold. Further, the “dissociation kinetics (koff) from M2R (in words)” value (from here on “dissociation kinetics (koff)”) in test [5] is reported as “slowest dissociation kinetics”.
As for `C[N+](C)(C)CC#CCOC(=O)Nc1cccc(Cl)c1` [McN, McN-A-343], the “Gi-protein activity relative to ACh (in words)” value in test [2] is on record as “decreased Gi signalling relative to ACh”. The “dissociation kinetics (koff)” value in test [5] is listed as “fast dissociation kinetics”.
Regarding `CC(=O)OC(C)C[N+](C)(C)C` (centres unmarked) [Meta, Metacholine], the “Gi-protein activity relative to ACh (in words)” value in test [2] was “almost identical Gi-protein activity as ACh”.
For `CCCC[N+]1(C)C2CC(OC(=O)C(CO)c3ccccc3)CC1C1OC12` (centres unmarked) [NBS, N-butylscopolamine], the “ligand efficacy class suggested by amide-I spectral features” value in test [3] was “antagonist”.
Consider `CC[N+]1(C)[C@@H]2CC(OC(=O)[C@H](CO)c3ccccc3)C[C@H]1[C@@H]1O[C@@H]12` (some centres unmarked) [Oxitro, Oxitropium], for which the “ligand efficacy class suggested by amide-I spectral features” value in test [3] is on record as “inverse agonist”.
Take `CN1[C@@H]2C[C@@H](OC(=O)[C@H](CO)c3ccccc3)C[C@H]1[C@@H]1O[C@@H]12` [Scop, Scopolamine]: the “Gi-protein activity relative to ACh (in words)” value in test [2] is recorded as “undetectable”.
`CCCCCCOc1nsnc1C1=CCCN(C)C1` [Xano, Xanomeline]: the “population of active-like M2R conformation from amide-I band ratio (in words)” value in test [3] is on record as “higher population of active-like M2R conformation”. The “Gi-protein activity relative to ACh (in words)” value in test [2] is “decreased Gi signalling relative to ACh”. Besides, in test [5], the “dissociation kinetics (koff)” value was “extremely slow”.

Source of the values: PMC8635417 (Communications Biology, 2021).
